From publication PMC10933344, “A lncRNA Dleu2-encoded peptide relieves autoimmunity by facilitating Smad3-mediated Treg induction” (EMBO Reports, 2024)

Legend:
[1] = tested on: TGF-β/Smad signaling in CD4+ T cells; test: qPCR analysis of TGF-β/Smad signaling downstream genes; format: cell-based, mouse; conditions: 20 μM 17aa, 24 h
Procedure: Figure 4 Dleu2-17aa modulates TGF-β/Smad signaling to promote Foxp3 transcription. (A) qPCR analysis of TGF-β/Smad signaling downstream genes in CD4^+ T cells treated with Dleu2-17aa or scrPEP for 24 h and challenged with TGF-β to activate the signaling pathway (n = 3). (B) NIH/3T3 cells were transfected with a Foxp3 CNS1-luciferase reporter plasmid and a Smad3 expression vector. Subsequently, the cells were treated with either Dleu2-17aa or scrPEP. Luciferase activity fold induction was quantified (n = 3). (C) Foxp3 CNS1 region enrichment by Smad3 treated with or without Dleu2-17aa for 24 h in CD4^+ T cells was assessed by ChIP-qPCR (n = 3). (D) EMSA was performed in NIH/3T3 cell nuclear lysates using a 10 μM biotin-labeled Foxp3 probe and treated with Dleu2-17aa or scrPEP (3, 10, 30 μM). There were band shifts to a higher molecular weight and an increase in band intensity by Dleu2-17aa treatment. Data information: n indicates biological replicate. Error bars are mean ± SEM; **P < 0.01, and ***P < 0.001. Statistical analysis was by two-tailed Student’s t-test for (A–C). Source data are available online for this figure.
Total RNA from cells or tissues was extracted using TRIzol reagent (Invitrogen) and then quantified. 1 μg of total RNA was reverse transcribed into cDNA with HiScript II Q RT SuperMix for qPCR (+gDNA Wiper) (Vazyme, China, R223-01). The cDNA samples were run in triplicate at 200 ng/well. Quantitative real-time PCR (qPCR) was performed using ChamQ Universal SYBR qPCR Master Mix (Vazyme, China) on an Applied Biosystems 7500 Fast Real-Time PCR System or a ViiA 7 Real-Time PCR System (Applied Biosystems). All gene expression results were normalized to the expression of the housekeeping gene GAPDH. Primer sequences are listed as follows: Dleu2 forward, 5′-[…]-3 and reverse, 5′-[…]-3; Foxp3 forward, 5′-CCCATCCCCAGGAGTCTTG-3′ and reverse, 5′-[…]-3′; Ctla2a forward, 5′-[…]-3′ and reverse, 5′-[…]-3′; Ccr8 forward, 5′-[…]-3′ and reverse, 5′-[…]-3′; Tgf-β forward: 5′-[…]-3′ and reverse, 5′-[…]-3′; Ctla4 forward, 5′-[…]-3′ and reverse, 5′-[…]-3′; Gapdh forward, 5′-[…]-3′ and reverse, 5′-GGGGTCGTTGATGGCAAC-3′.

[2] = tested on: Smad3 binding to Foxp3 CNS1 region; test: EMSA, Foxp3 CNS1 probe, NIH/3T3 nuclear lysates; conditions: 3, 10, 30 μM; NIH/3T3 nuclear extracts
Procedure: EMSA was performed using the LightShift Chemiluminescent EMSA kit (Thermo Fisher Scientific, #20148). Briefly, Nuclear extracts of NIH/3T3 cells were prepared using theNE-PER Nuclear and Cytoplasmic Extraction Kit (Thermo Fisher Scientific, #78835). Complementary DNA oligonucleotide Foxp3 CNS1 region probes were 5′-[…]-3′ and 5′-[…]-3′, AP-1 probes were 5′-[…]-3′ and 5′-[…]-3′, PAI-1 probes were 5′-[…]-3′ and 5′-[…]-3′. Probes were end-labeled with biotin and annealed. The reaction mix consists of labeled oligonucleotides, 10 µg of the nuclear extracts, and 3, 10, 30 μM Dleu2-17aa or scrPEP. The binding reaction was incubated at room temperature for 30 min, followed by loading onto a 6% native DNA polyacrylamide gel. The gel was prerun and run with […] Tris-Borate-EDTA and processed according to the manufacturer’s instructions.

[3] = tested on: CD4+ T cells in CNS of EAE mice; test: Flow cytometry of CNS T cells of treated EAE mice; format: in vivo, mouse; conditions: 100 μg i.v., replicate 4

ARGPARRMRGGRRRRLR [scrPEP, scrambled control peptide of Dleu2-17aa]
Relative mRNA expression, Ccr8 ([1]; TGF-β, replicate 1): 1.77 | Relative mRNA expression, Clta4 ([1]; TGF-β, replicate 1): 4.488 | Relative mRNA expression, Ctla2a ([1]; TGF-β, replicate 1): 7.981 | Relative mRNA expression, Foxp3 ([1]; TGF-β, replicate 1): 19.2862 | Relative mRNA expression, Tgf-β ([1]; TGF-β, replicate 1): 0.9918 | Relative mRNA expression, Ccr8 ([1]; TGF-β, replicate 2): 1.871 | Relative mRNA expression, Clta4 ([1]; TGF-β, replicate 2): 3.767 | Relative mRNA expression, Ctla2a ([1]; TGF-β, replicate 2): 6.697 | Relative mRNA expression, Foxp3 ([1]; TGF-β, replicate 2): 27.373 | Relative mRNA expression, Tgf-β ([1]; TGF-β, replicate 2): 0.9024 | Relative mRNA expression, Ccr8 ([1]; TGF-β, replicate 3): 1.768 | Relative mRNA expression, Clta4 ([1]; TGF-β, replicate 3): 4.326 | Relative mRNA expression, Ctla2a ([1]; TGF-β, replicate 3): 4.254 | Relative mRNA expression, Foxp3 ([1]; TGF-β, replicate 3): 26.607 | Relative mRNA expression, Tgf-β ([1]; TGF-β, replicate 3): 1.365 | Relative mRNA expression, Ccr8 ([1]; no TGF-β, replicate 1): 1 | Relative mRNA expression, Clta4 ([1]; no TGF-β, replicate 1): 1 | Relative mRNA expression, Ctla2a ([1]; no TGF-β, replicate 1): 1 | Relative mRNA expression, Foxp3 ([1]; no TGF-β, replicate 1): 1 | Relative mRNA expression, Tgf-β ([1]; no TGF-β, replicate 1): 1 | Relative mRNA expression, Ccr8 ([1]; no TGF-β, replicate 2): 0.871 | Relative mRNA expression, Clta4 ([1]; no TGF-β, replicate 2): 0.794 | Relative mRNA expression, Ctla2a ([1]; no TGF-β, replicate 2): 0.868 | Relative mRNA expression, Foxp3 ([1]; no TGF-β, replicate 2): 1 | Relative mRNA expression, Tgf-β ([1]; no TGF-β, replicate 2): 0.7198 | Relative mRNA expression, Ccr8 ([1]; no TGF-β, replicate 3): 1 | Relative mRNA expression, Clta4 ([1]; no TGF-β, replicate 3): 0.856 | Relative mRNA expression, Ctla2a ([1]; no TGF-β, replicate 3): 1 | Relative mRNA expression, Foxp3 ([1]; no TGF-β, replicate 3): 0.967 | Relative mRNA expression, Tgf-β ([1]; no TGF-β, replicate 3): 0.8563 | Smad3 binding to the CNS1 region of Foxp3 (EMSA) [2]: did not | CD4+ / Live Cells(%) [3]: 10.2% | Foxp3+/ CD4+ Cells (%) [3]: 10.5% | IFN-γ+/ CD4+ Cells(%) [3]: 22.6%
